# Results: US20240182431A1, “NEW CONTRAST AGENT FOR USE IN MAGNETIC RESONANCE IMAGING” (Bayer Aktiengesellschaft, priority 2021, published 2024)
# Test: Partition coefficient (logP butanol/buffer)
# Assay type: physicochemical
# Details: 1-butanol / 50 mM Tris-HCl, pH 7.4, room temperature
row,Compound,Log P (butanol/buffer)
1,"CCOCCOCCOc1cc(CC(C(=O)O)N2CCN(CC(=O)[O-])CCN(CC(=O)[O-])CCN(CC(=O)[O-])CC2)cc(OCCOCCOCC)c1.[Gd+3] (stereo not drawn) [Example 39, gadolinium 2,2′,2″-{10-[2-{3,5-bis[2-(2-ethoxyethoxy)ethoxy]phenyl}-1-carboxyethyl]-1,4,7,10-tetraazacyclododecane-1,4,7-triyl}triacetate]",−1.32
2,"CCOCCOCCOc1ccc(CCC[C@@H](C(=O)O)N2CCN(C(CO)C(=O)[O-])CCN(C(CO)C(=O)[O-])CCN(C(CO)C(=O)[O-])CC2)cc1.[Gd+3] (mixture of isomers) [Example 21, gadolinium-2,2′,2″-{10-[(1S)-1-carboxy-4-{4-[2-(2-ethoxyethoxy)ethoxy]phenyl}butyl]-1,4,7,10-tetraazacyclododecane-1,4,7-triyl}tris(3-hydroxypropanoate)]",−1.03
3,"CCOCCOCCOc1ccc(CCC[C@H](C(=O)O)N2CCN([C@H](CO)C(=O)[O-])CCN([C@H](CO)C(=O)[O-])CCN([C@H](CO)C(=O)[O-])CC2)cc1.[Gd+3] [Example 19, gadolinium (2R,2R,2″R)-2,2′,2″-{10-[(1R)-1-carboxy-4-{4-[2-(2-ethoxyethoxy)ethoxy]phenyl}butyl]-1,4,7,10-tetraazacyclododecane-1,4,7-triyl}tris(3-hydroxypropanoate)]",−0.95
4,"CCOCCOCCOCCOc1ccc(C[C@@H](C(=O)O)N2CCN(CC(=O)[O-])CCN(CC(=O)[O-])CCN(CC(=O)[O-])CC2)c(OCCOCCOCCOCC)c1.[Gd+3] [Example 40, gadolinium 2,2′,2″-{10-[(1S)-2-(2,4-bis{2-[2-(2-ethoxyethoxy)ethoxy]ethoxy}phenyl)-1-carboxyethyl]-1,4,7,10-tetraazacyclododecane-1,4,7-triyl}triacetate]",−1.43
5,"O=C([O-])CN1CCN(C(Cc2ccc(OCC(F)(F)C(F)F)cc2)C(=O)O)CCN(CC(=O)[O-])CCN([C@@H](CO)C(=O)[O-])CC1.[Gd+3] (mixture of isomers) [Example 33, gadolinium (2S)-2-[4,10-bis(carboxylatomethyl)-7-{1-carboxy-2-[4-(2,2,3,3-tetrafluoropropoxy)phenyl]ethyl}-1,4,7,10-tetraazacyclododecan-1-yl]-3-hydroxypropanoate]",−0.55
6,"CCCCOc1ccc(CCC[C@@H](C(=O)O)N2CCN(CC(=O)[O-])CCN(CC(=O)[O-])CCN(CC(=O)[O-])CC2)cc1.[Gd+3] [Example 31, gadolinium 2,2′,2″-{10-[(1S)-4-(4-butoxyphenyl)-1-carboxybutyl]-1,4,7,10-tetraazacyclododecane-1,4,7-triyl}triacetate]",0.20
7,"CCCCOc1ccc(CC(C(=O)O)N2CCN(CC(=O)[O-])CCN(CC(=O)[O-])CCN(CC(=O)[O-])CC2)cc1.[Gd+3] (stereo not drawn) [Example 14, gadolinium 2,2′,2″-{10-[2-(4-butoxyphenyl)-1-carboxyethyl]-1,4,7,10-tetraazacyclododecane-1,4,7-triyl}triacetate]",−0.38
8,"CCOCCOCCOc1ccc(CCC[C@H](C(=O)O)N2CCN([C@@H](CO)C(=O)[O-])CCN([C@@H](CO)C(=O)[O-])CCN([C@@H](CO)C(=O)[O-])CC2)cc1.[Gd+3] [Example 18, gadolinium (2S,2′S,2″S)-2,2′,2″-{10-[(1R)-1-carboxy-4-{4-[2-(2-ethoxyethoxy)ethoxy]phenyl}butyl]-1,4,7,10-tetraazacyclododecane-1,4,7-triyl}tris(3-hydroxypropanoate)]",−1.11
9,"CCOCCOCCOc1ccc(CC(C(=O)O)N2CCN(CC(=O)[O-])CCN(C(C)C(=O)[O-])CCN(CC(=O)[O-])CC2)cc1.[Gd+3] (single isomer, unassigned) [Example 5, gadolinium 2-[7-(1-carboxy-2-{4-[2-(2-ethoxyethoxy)ethoxy]phenyl}ethyl)-4,10-bis(carboxylatomethyl)-1,4,7,10-tetraazacyclododecan-1-yl]propanoate]",−1.52
10,"CCOCCOCCOc1ccc(CC(C(=O)O)N2CCN(CC(=O)[O-])CCN(C(C)C(=O)[O-])CCN(CC(=O)[O-])CC2)cc1.[Gd+3] (single isomer, unassigned) [Example 6, gadolinium 2-[7-(1-carboxy-2-{4-[2-(2-ethoxyethoxy)ethoxy]phenyl}ethyl)-4,10-bis(carboxylatomethyl)-1,4,7,10-tetraazacyclododecan-1-yl]propanoate]",−1.44
11,"CCOc1ccc(CCCC(C(=O)O)N2CCN(CC(=O)[O-])CCN(CC(=O)[O-])CCN(CC(=O)[O-])CC2)cc1.[Gd+3] (stereo not drawn) [Example 28, gadolinium 2,2′,2″-{10-[1-carboxy-4-(4-ethoxyphenyl)butyl]-1,4,7,10-tetraazacyclododecane-1,4,7-triyl}triacetate]",−0.71
12,"CCOCCOCCOc1ccc(CC(C(=O)O)N2CCN(CC(=O)[O-])CCN(CC(=O)[O-])CCN(CC(=O)[O-])CC2)nc1.[Gd+3] (stereo not drawn) [Example 23, gadolinium 2,2′,2″-{10-[1-carboxy-2-{5-[2-(2-ethoxyethoxy)ethoxy]pyridin-2-yl}ethyl]-1,4,7,10-tetraazacyclododecane-1,4,7-triyl}triacetate]",−1.94

# Other lines, results leading:
row,Log P (butanol/buffer),Compound
1,−1.68,"CCOCCOCCOCCOc1ccc(C[C@@H](C(=O)O)N2CCN(CC(=O)[O-])CCN(CC(=O)[O-])CCN(CC(=O)[O-])CC2)cc1.[Gd+3] [Example 11, gadolinium 2,2′,2″-{10-[(1S)-1-carboxy-2-(4-{2-[2-(2-ethoxyethoxy)ethoxy]ethoxy}phenyl)ethyl]-1,4,7,10-tetraazacyclododecane-1,4,7-triyl}triacetate]"
2,−1.09,"CCOCCOc1ccc(CC(C(=O)O)N2CCN(CC(=O)[O-])CCN(C(CC)C(=O)[O-])CCN(CC(=O)[O-])CC2)cc1.[Gd+3] (single isomer, unassigned) [Example 7, gadolinium 2-[7-{1-carboxy-2-[4-(2-ethoxyethoxy)phenyl]ethyl}-4,10-bis(carboxylatomethyl)-1,4,7,10-tetraazacyclododecan-1-yl]butanoate]"
3,−1.61,"CCOCCOCCOc1ccc(CC(C(=O)O)N2CCN(CC(=O)[O-])CCN(C(CO)C(=O)[O-])CCN(CC(=O)[O-])CC2)cc1.[Gd+3] (stereo not drawn) [Example 41, gadolinium-2-{7-[1-carboxy-2-{4-[2-(2-ethoxyethoxy)ethoxy]phenyl}ethyl]-4,10-bis(carboxylatomethyl)-1,4,7,10-tetraazacyclododecan-1-yl}-3-hydroxypropanoate]"
4,−1.70,"CCOCCOCCOCCOc1ccc(CC(C(=O)O)N2CCN(CC(=O)[O-])CCN(CC(=O)[O-])CCN(CC(=O)[O-])CC2)cc1.[Gd+3] (stereo not drawn) [Example 10, gadolinium 2,2′,2″-{10-[1-carboxy-2-(4-{2-[2-(2-ethoxyethoxy)ethoxy]ethoxy}phenyl)ethyl]-1,4,7,10-tetraazacyclododecane-1,4,7-triyl}triacetate]"
5,−1.53,"CCOCCOCCOCCOc1ccc(CC(C(=O)O)N2CCN(CC(=O)[O-])CCN(C(COC)C(=O)[O-])CCN(CC(=O)[O-])CC2)cc1.[Gd+3] (stereo not drawn) [Example 13, gadolinium 2-{7-[1-carboxy-2-(4-{2-[2-(2-ethoxyethoxy)ethoxy]ethoxy}phenyl)ethyl]-4,10-bis(carboxylatomethyl)-1,4,7,10-tetraazacyclododecan-1-yl}-3-methoxypropanoate]"
6,−1.53,"CCOCCOc1ccc(CC(C(=O)O)N2CCN(CC(=O)[O-])CCN(CC(=O)[O-])CCN(CC(=O)[O-])CC2)cc1.[Gd+3] (stereo not drawn) [Example 32, gadolinium 2,2′,2″-(10-{1-carboxy-2-[4-(2-ethoxyethoxy)phenyl]ethyl}-1,4,7,10-tetraazacyclododecane-1,4,7-triyl)triacetate]"
7,−1.19,"CCOCCOCCOc1ccc(CC(C(=O)[O-])N2CCN(CC(=O)[O-])CCN(C(CC)C(=O)O)CCN(CC(=O)[O-])CC2)cc1.[Gd+3] (stereo not drawn) [Example 43, gadolinium-2-{4,10-bis(carboxylatomethyl)-7-[1-carboxypropyl]-1,4,7,10-tetraazacyclododecan-1-yl}-3-{4-[2-(2-ethoxyethoxy)ethoxy]phenyl}propanoate]"
8,−1.61,"CCOCCOCCOc1ccc(C[C@H](C(=O)O)N2CCN(CC(=O)[O-])CCN(CC(=O)[O-])CCN(CC(=O)[O-])CC2)cc1.[Gd+3] [Example 4, gadolinium 2,2′,2″-{10-[(1R)-1-carboxy-2-{4-[2-(2-ethoxyethoxy)ethoxy]phenyl}ethyl]-1,4,7,10-tetraazacyclododecane-1,4,7-triyl}triacetate]"
9,−1.04,"CCOCCOc1ccc(CC(C(=O)O)N2CCN(CC(=O)[O-])CCN(C(CC)C(=O)[O-])CCN(CC(=O)[O-])CC2)cc1.[Gd+3] (single isomer, unassigned) [Example 8, gadolinium 2-[7-{1-carboxy-2-[4-(2-ethoxyethoxy)phenyl]ethyl}-4,10-bis(carboxylatomethyl)-1,4,7,10-tetraazacyclododecan-1-yl]butanoate]"
10,−0.60,"CCCC(C(=O)[O-])N1CCN(CC(=O)[O-])CCN(C(Cc2ccc(OCC)cc2)C(=O)O)CCN(CC(=O)[O-])CC1.[Gd+3] (stereo not drawn) [Example 30, gadolinium 2-{7-[1-carboxy-2-(4-ethoxyphenyl)ethyl]-4,10-bis(carboxylatomethyl)-1,4,7,10-tetraazacyclododecan-1-yl}pentanoate]"
11,−1.68,"CCOCCOCCOCCOc1ccc(C[C@H](C(=O)O)N2CCN(CC(=O)[O-])CCN(CC(=O)[O-])CCN(CC(=O)[O-])CC2)cc1.[Gd+3] [Example 12, gadolinium 2,2′,2″-{10-[(1R)-1-carboxy-2-(4-{2-[2-(2-ethoxyethoxy)ethoxy]ethoxy}phenyl)ethyl]-1,4,7,10-tetraazacyclododecane-1,4,7-triyl}triacetate]"

# Same assay, conditions: pH 7.4
row,Log P (butanol/buffer),Compound
1,−1.08,"CCOCCOCCOc1ccc(CCC[C@@H](C(=O)O)N2CCN(C(CCO)C(=O)[O-])CCN(C(CCO)C(=O)[O-])CCN(C(CCO)C(=O)[O-])CC2)cc1.[Gd+3] (mixture of isomers) [Example 36, gadolinium-2,2′-{4-[(1S)-1-carboxy-4-{4-[2-(2-ethoxyethoxy)ethoxy]phenyl}butyl]-10-[1-carboxylato-3-hydroxypropyl]-1,4,7,10-tetraazacyclododecane-1,7-diyl}bis(4-hydroxybutanoate)]"
